Laboratory results published in ChEMBL document CHEMBL1828549, “Novel C-4'' modified azithromycin analogs with remarkably enhanced activity against erythromycin-resistant Streptococcus pneumoniae: the synthesis and antimicrobial evaluation” (2011).
≈ marks a conversion by molar mass, not a printed value.

Legend:
Assay type in all cases: functional
[1] = test system: Streptococcus pneumoniae; assay: Antibacterial activity against erythromycin-susceptible Streptococcus pneumoniae ATCC 49619 by the broth microdilution method
[2] = test system: Streptococcus pneumoniae; assay: Antibacterial activity against erythromycin-resistant Streptococcus pneumoniae AB11 expressing erm and mef gene by the broth microdilution method
[3] = test system: Staphylococcus aureus; assay: Antibacterial activity against penicillin-resistant Staphylococcus aureus by the broth microdilution method
[4] = test system: Staphylococcus aureus; assay: Antibacterial activity against […] Staphylococcus aureus ATCC 29213 by the broth microdilution method
[5] = test system: Streptococcus pneumoniae; assay: Antibacterial activity against erythromycin-resistant Streptococcus pneumoniae B1 expressing erm gene by the broth microdilution method
[6] = test system: Streptococcus pneumoniae; assay: Antibacterial activity against erythromycin-resistant Streptococcus pneumoniae A22072 expressing mef gene by the broth microdilution method
[7] = test system: Staphylococcus aureus; assay: Antibacterial activity against erythromycin-susceptible Staphylococcus aureus ATCC 25923 by the broth microdilution method

SMILES | MIC [1] [µg/mL] | MIC [2] [µg/mL] | MIC [3] [µg/mL] | MIC [4] [µg/mL] | MIC [5] [µg/mL] | MIC [6] [µg/mL] | MIC [7] [µg/mL]
CC[C@H]1OC(=O)[C@H](C)[C@@H](O[C@H]2C[C@@](C)(OC)[C@@H](OC(=O)NCCNC(=O)c3ccc(Cl)cc3Cl)[C@H](C)O2)[C@H](C)[C@@H](O[C@@H]2O[C@H](C)C[C@H](N(C)C)[C@H]2O)[C@](C)(O)C[C@@H](C)CN(C)[C@H](C)[C@H]2OC(=O)O[C@@]21C | 0.5 (≈ 0.484 µM) | 64 (≈ 61.9 µM) | 4 (≈ 3.87 µM) | 8 (≈ 7.74 µM) | 16 (≈ 15.5 µM) | 2 (≈ 1.93 µM) | 4 (≈ 3.87 µM)
CC[C@H]1OC(=O)[C@H](C)[C@@H](O[C@H]2C[C@@](C)(OC)[C@@H](O)[C@H](C)O2)[C@H](C)[C@@H](O[C@@H]2O[C@H](C)C[C@H](N(C)C)[C@H]2O)[C@](C)(O)C[C@@H](C)CN(C)[C@H](C)[C@@H](O)[C@]1(C)O [AZITHROMYCIN] | 0.03 (≈ 0.0401 µM) | 256 (≈ 342 µM) | 0.12 (≈ 0.16 µM) | 1 (≈ 1.34 µM) | 128 (≈ 171 µM) | 4 (≈ 5.34 µM) | 0.25 (≈ 0.334 µM)
CC[C@H]1OC(=O)[C@H](C)[C@@H](O[C@H]2C[C@@](C)(OC)[C@@H](OC(=O)NCCCCNC(=O)c3ccc(OC)cc3)[C@H](C)O2)[C@H](C)[C@@H](O[C@@H]2O[C@H](C)C[C@H](N(C)C)[C@H]2O)[C@](C)(O)C[C@@H](C)CN(C)[C@H](C)[C@H]2OC(=O)O[C@@]21C | 1 (≈ 0.977 µM) | 16 (≈ 15.6 µM) | 1 (≈ 0.977 µM) | 32 (≈ 31.3 µM) | 4 (≈ 3.91 µM) | 0.25 (≈ 0.244 µM) | 4 (≈ 3.91 µM)
CC[C@H]1OC(=O)[C@H](C)[C@@H](O[C@H]2C[C@@](C)(OC)[C@@H](OC(=O)NNC(=O)c3ccc(F)cc3)[C@H](C)O2)[C@H](C)[C@@H](O[C@@H]2O[C@H](C)C[C@H](N(C)C)[C@H]2O)[C@](C)(O)C[C@@H](C)CN(C)[C@H](C)[C@H]2OC(=O)O[C@@]21C | 4 (≈ 4.19 µM) | 64 (≈ 67 µM) | 4 (≈ 4.19 µM) | 32 (≈ 33.5 µM) | 32 (≈ 33.5 µM) | 1 (≈ 1.05 µM) | 4 (≈ 4.19 µM)
CC[C@H]1OC(=O)[C@H](C)[C@@H](O[C@H]2C[C@@](C)(OC)[C@@H](OC(=O)NCCCCNC(=O)c3ccc(Br)cc3)[C@H](C)O2)[C@H](C)[C@@H](O[C@@H]2O[C@H](C)C[C@H](N(C)C)[C@H]2O)[C@](C)(O)C[C@@H](C)CN(C)[C@H](C)[C@H]2OC(=O)O[C@@]21C | 1 (≈ 0.933 µM) | 16 (≈ 14.9 µM) | 32 (≈ 29.8 µM) | 32 (≈ 29.8 µM) | 8 (≈ 7.46 µM) | 1 (≈ 0.933 µM) | 8 (≈ 7.46 µM)
CC[C@H]1OC(=O)[C@H](C)[C@@H](O[C@H]2C[C@@](C)(OC)[C@@H](OC(=O)NCCCCNC(=O)c3ccc(Cl)cc3)[C@H](C)O2)[C@H](C)[C@@H](O[C@@H]2O[C@H](C)C[C@H](N(C)C)[C@H]2O)[C@](C)(O)C[C@@H](C)CN(C)[C@H](C)[C@H]2OC(=O)O[C@@]21C | 0.5 (≈ 0.487 µM) | 16 (≈ 15.6 µM) | 64 (≈ 62.3 µM) | 8 (≈ 7.78 µM) | 8 (≈ 7.78 µM) | 1 (≈ 0.973 µM) | 4 (≈ 3.89 µM)
CC[C@H]1OC(=O)[C@H](C)[C@@H](O[C@H]2C[C@@](C)(OC)[C@@H](OC(=O)NNC(=O)c3ccc(Cl)cc3Cl)[C@H](C)O2)[C@H](C)[C@@H](O[C@@H]2O[C@H](C)C[C@H](N(C)C)[C@H]2O)[C@](C)(O)C[C@@H](C)CN(C)[C@H](C)[C@H]2OC(=O)O[C@@]21C | 1 (≈ 0.994 µM) | 16 (≈ 15.9 µM) | 16 (≈ 15.9 µM) | 16 (≈ 15.9 µM) | 4 (≈ 3.98 µM) | 0.25 (≈ 0.249 µM) | 4 (≈ 3.98 µM)
CC[C@H]1OC(=O)[C@H](C)[C@@H](O[C@H]2C[C@@](C)(OC)[C@@H](OC(=O)NCCCCNC(=O)c3ccc(OC)c(OC)c3)[C@H](C)O2)[C@H](C)[C@@H](O[C@@H]2O[C@H](C)C[C@H](N(C)C)[C@H]2O)[C@](C)(O)C[C@@H](C)CN(C)[C@H](C)[C@H]2OC(=O)O[C@@]21C | 2 (≈ 1.9 µM) | 32 (≈ 30.4 µM) | 16 (≈ 15.2 µM) | 64 (≈ 60.8 µM) | 32 (≈ 30.4 µM) | 1 (≈ 0.949 µM) | 8 (≈ 7.6 µM)
CC[C@H]1OC(=O)[C@H](C)[C@@H](O[C@H]2C[C@@](C)(OC)[C@@H](OC(=O)NCCCCNC(=O)c3ccccc3OC)[C@H](C)O2)[C@H](C)[C@@H](O[C@@H]2O[C@H](C)C[C@H](N(C)C)[C@H]2O)[C@](C)(O)C[C@@H](C)CN(C)[C@H](C)[C@H]2OC(=O)O[C@@]21C | 2 (≈ 1.95 µM) | 16 (≈ 15.6 µM) | 32 (≈ 31.3 µM) | 16 (≈ 15.6 µM) | 4 (≈ 3.91 µM) | 0.5 (≈ 0.489 µM) | 4 (≈ 3.91 µM)
CC[C@H]1OC(=O)[C@H](C)[C@@H](O[C@H]2C[C@@](C)(OC)[C@@H](OC(=O)NCCNC(=O)c3ccccc3OC)[C@H](C)O2)[C@H](C)[C@@H](O[C@@H]2O[C@H](C)C[C@H](N(C)C)[C@H]2O)[C@](C)(O)C[C@@H](C)CN(C)[C@H](C)[C@H]2OC(=O)O[C@@]21C | 0.5 (≈ 0.502 µM) | 64 (≈ 64.3 µM) | 64 (≈ 64.3 µM) | 8 (≈ 8.04 µM) | 32 (≈ 32.2 µM) | 8 (≈ 8.04 µM) | 4 (≈ 4.02 µM)
